This note sets out measurements from patent US9321743B2, “Compositions and methods of inhibiting N-acylethanolamine-hydrolyzing acid amidase” (The Regents of the University of California, priority 2007, dated 2016).

The target in assay [1] is recombinant NAAA (Rattus norvegicus (Rat), UniProt Q5KTC7). The experiment in a line: NAAA assay. Format: biochemical. Conditions: read-out: IC50 of NAAA inhibition. The protocol:
Recombinant NAAA or native rat lung NAAA was incubated at 37° C. for 30 min in 0.2 ml of sodium hydrogen phosphate buffer (50 mM, pH 5.0) containing 0.1% Triton X-100, 3 mM dithiothreitol (DTT) and […] heptadecenoylethanolamide as substrate. The reaction was terminated by the addition of 0.2 ml cold methanol containing […] of heptadecanoic acid (HDA, NuChek Prep, Elysian, Minn.). Samples were analyzed by LC/MS (liquid chromatography/mass spectrometry). Heptadecanoic acid was eluted on an XDB Eclipse C18 column isocratically at 2.2 ml/min for 1 min with a solvent mixture of 95% methanol and 5% water, both containing 0.25% acetic acid and 5 mM ammonium acetate. The column temperature was 50° C. ESI was in the negative mode, capillary voltage was 4 kV, and fragmentor voltage was 100 V. N2 was used as drying gas at a flow rate of 13 liters/min and a temperature of 350° C. Nebulizer pressure was set at 60 psi. [M-H]-was monitored in SIM mode using heptadecanoic acid as internal standard. Calibration curves were generated using commercial heptadecenoic acid (Nu-Chek Prep, m/z=267).

The test system of assay [2] is carrageenan-induced inflammation. Put plainly: mouse carrageenan model (carrageenan-soaked polyethylene sponge implanted under the dorsal skin). Format: in vivo. The text has this:
The contribution of endogenous PEA to inflammatory processes remains largely undefined. […] The inventors have previously shown that the proinflammatory phorbol ester, 12-O-tetradecanoylphorbol-13-acetate (TPA), decreases dermal PEA levels following skin inflammation. These findings raised the possibility that reduced PEA levels during inflammation may allow for the progression of the inflammatory process. To further explore this idea, the inventors evaluated the effects of carrageenan-induced inflammation on PEA levels in the mouse. Polyethylene sponges injected with vehicle (10% DMSO in saline) or carrageenan (1%) were surgically implanted under the dorsal skin of mice. After 3 days, the mice were sacrificed and the sponges were removed and analyzed for inflammatory cell infiltration and cellular PEA content. In carrageenan-treated animals the number of infiltrating cells (primarily neutrophils) increased by approximately 3-fold as can be taken from FIG. 2. Here, surgical implantation of vehicle (v) or carrageenan (c) soaked sponges under the dorsal skin of Swiss mice for 3 days (A) increased the number of infiltrating neutrophils and (B) decreased the levels of endogenous cellular PEA. (C) Time course of the effects of vehicle (open symbols) or carrageen (closed symbols) on PEA levels **P<0.01 or ***P<0.001 vs. V, t-test or ANOVA, followed by Dunnett's post-hoc as appropriate (n=6).
As a first step in determining the role of endogenous PEA in inflammation, the inventors examined the effects of local application of PEA on inflammatory responses. Polyethylene sponges injected with vehicle or carrageenan (1%) and either vehicle (10% DMSO in saline) or various doses of PEA (0.1-50 μg) were surgically implanted under the dorsal skin of mice. After 3 days, the mice were killed and the sponges were removed and analyzed for cell infiltration. […] Here panels (A-B) depict the effect of vehicle (open bars), carrageenan (filled bars) or PEA (0.1-50 μg) in Swiss mice, black bars; PEA (50 μg in PPAR-α−/− mice), scored as the number of infiltrating inflammatory cells into a polyethylene sponge (size) injected with vehicle, carrageenan (1%) or PEA, implanted under the dorsal skin of (A) Swiss mice or (B) wildtype C57BL6 mice (+/+) or PPAR-α/− mice for 3 days. **P<0.01 or ***P<0.001 vs. V, ## P<0.01 vs. carrageenan control. ANOVA, followed by Tukey's or Dunnett's post-hoc as appropriate (n=6). Thus, it should be appreciated that peripheral inflammation is associated with decreased PEA synthesis in infiltrating cells, and that restoring PEA levels by exogenous PEA administration reduces inflammatory responses.
Polyethylene sponges (1 cm^3) were injected with either vehicle (100 μl of water:DMSO (9:1), V, open bars), carrageenan (1%, filled bars), URB597 (30 μg), and URB783 (30 μg) as indicated. **P<0.01 or ***P<0.001 vs. V, ## P<0.01 vs. carrageenan control. ANOVA, followed by Tukey's or Dunnett's post-hoc as appropriate (n=5-7).

Assay [3] concerns spinal cord injury. Put plainly: spinal cord injury (SCI) model, extradural clip compression. It is filed as in vivo, mouse. Conditions: spinal cord tissue 24 hours after SCI, local administration after SCI. The protocol:
In the spinal cord injury (SCI) model, extradural compression of a section of the spinal cord exposed via a four-level T5-T8 aminectomy, caused a substantial increase in iNOS expression in the inflammatory cells as well as in nuclei of […] in the white and gray matter of the spinal cord tissues collected from mice 24 hours after SCI. No iNOS staining was detected in the spinal cord obtained from sham mice. […] A typical experimental protocol is described below.
Mice were randomized into 4 groups (n=40 animals/group). Sham animals were subjected to the surgical procedure except that the aneurysm clip was not applied and treated locally at the spinal cord T5-T8 level with vehicle (saline) or 3 (30 μg/mouse) 1 h and 6 h after surgical procedure. […]
Immunohistochemical localization of PAR, nitrotyrosine, FAS-ligand, Bax, Bcl-2 and iNOS. Twenty-four hours after SCI, nitrotyrosine, a specific marker of nitrosative stress, was measured by immunohistochemical analysis in the spinal cord sections to determine the localization of “peroxynitrite formation” and/or other nitrogen derivatives produced during SCI. […] Specific labeling was detected with a biotin-conjugated goat anti-rabbit IgG and avidin-biotin peroxidase complex ([…]). […]

The mark [4] stands for this setting: 30 μg in sponge, 3 days, Swiss mice.

recombinant NAAA, sequence (Q5KTC7 34-362): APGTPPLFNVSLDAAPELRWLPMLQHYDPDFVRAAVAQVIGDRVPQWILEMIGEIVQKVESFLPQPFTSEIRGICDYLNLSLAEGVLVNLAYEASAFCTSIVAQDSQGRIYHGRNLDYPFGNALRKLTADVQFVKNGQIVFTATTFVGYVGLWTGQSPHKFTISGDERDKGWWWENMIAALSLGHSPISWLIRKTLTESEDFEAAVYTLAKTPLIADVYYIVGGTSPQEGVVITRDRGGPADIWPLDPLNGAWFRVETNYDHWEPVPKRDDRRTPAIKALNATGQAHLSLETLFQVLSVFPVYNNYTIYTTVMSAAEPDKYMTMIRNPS

As usually defined, the IC50 is the point on the concentration scale where inhibition reaches its midpoint. Turning to `O=C(N[C@H]1COC1=O)c1ccc(-c2ccccc2)cc1` [URB894, (S)—N-(2-oxooxetan-3-yl)biphenyl-4-carboxamide], in assay [1], the IC50 worked out at 115 ± 13 nM.

Consider `NC(=O)c1cccc(-c2cccc(OC(=O)NC3CCCCC3)c2)c1` [URB597, reference compound], for which, in assay [2] (30 μg in sponge, 3 days), the anti-inflammatory effect entry is reported as “no anti-inflammatory effect”.

On to `O=C(CCc1ccccc1)N[C@H]1COC1=O` [URB783, (S)—N-(2-oxooxetan-3-yl)-3-phenylpropionamide], for which, in assay [1], the IC50 turned out to be 420 ± 20 nM. In assay [2] (setting [4]), the “endogenous PEA levels” value is recorded as “restored PEA to basal levels” and the “number of infiltrating cells” value is reported as “significantly reduced”. The “anti-inflammatory effects in PPAR-α null mice” value in assay [2] (PPAR-α null mice) is on record as “absent”. In assay [2] (in sponge, data not shown), the exudates volume result is reported as “significantly reduced”. Moreover, in assay [3], the “expression of iNOS” value is “significant reduction”; the “other markers of inflammation and cell apoptosis (PAR, nitrotyrosine, Fas-ligand, Bax, Bcl-2, TUNEL)” value is “significant reduction”.

In the case of `CCCCCCCCCCCCCCCC(=O)NCCO` [PEA, N-palmitoylethanolamine, reference compound], the “number of infiltrating cells and edema in PPAR-α-null animals” value in assay [2] (PEA 50 μg, PPAR-α-null mice) is given as “had no effect”. Further, the “number of infiltrating cells” value in assay [2] (PEA 0.1-50 μg in sponge, 3 days, wild-type mice) is “dose-dependently reduced”. Moreover, in assay [2] (PEA in sponge, wild-type mice, data not shown), the edema entry is “dose-dependently reduced”.
